Activity calls are given as the source filed them.
Key:
[1] = molecular target: T1, Intestinal-type alkaline phosphatase (Homo sapiens, UniProt P09923); experiment: inhibition of human intestinal alkaline phosphatase – biochemical, dose response (AID 488876); type: functional
[2] = molecular target: T2, Histone-lysine N-methyltransferase NSD2 (Homo sapiens, UniProt O96028); type: biochemical
T2 sequence (O96028 whole entry): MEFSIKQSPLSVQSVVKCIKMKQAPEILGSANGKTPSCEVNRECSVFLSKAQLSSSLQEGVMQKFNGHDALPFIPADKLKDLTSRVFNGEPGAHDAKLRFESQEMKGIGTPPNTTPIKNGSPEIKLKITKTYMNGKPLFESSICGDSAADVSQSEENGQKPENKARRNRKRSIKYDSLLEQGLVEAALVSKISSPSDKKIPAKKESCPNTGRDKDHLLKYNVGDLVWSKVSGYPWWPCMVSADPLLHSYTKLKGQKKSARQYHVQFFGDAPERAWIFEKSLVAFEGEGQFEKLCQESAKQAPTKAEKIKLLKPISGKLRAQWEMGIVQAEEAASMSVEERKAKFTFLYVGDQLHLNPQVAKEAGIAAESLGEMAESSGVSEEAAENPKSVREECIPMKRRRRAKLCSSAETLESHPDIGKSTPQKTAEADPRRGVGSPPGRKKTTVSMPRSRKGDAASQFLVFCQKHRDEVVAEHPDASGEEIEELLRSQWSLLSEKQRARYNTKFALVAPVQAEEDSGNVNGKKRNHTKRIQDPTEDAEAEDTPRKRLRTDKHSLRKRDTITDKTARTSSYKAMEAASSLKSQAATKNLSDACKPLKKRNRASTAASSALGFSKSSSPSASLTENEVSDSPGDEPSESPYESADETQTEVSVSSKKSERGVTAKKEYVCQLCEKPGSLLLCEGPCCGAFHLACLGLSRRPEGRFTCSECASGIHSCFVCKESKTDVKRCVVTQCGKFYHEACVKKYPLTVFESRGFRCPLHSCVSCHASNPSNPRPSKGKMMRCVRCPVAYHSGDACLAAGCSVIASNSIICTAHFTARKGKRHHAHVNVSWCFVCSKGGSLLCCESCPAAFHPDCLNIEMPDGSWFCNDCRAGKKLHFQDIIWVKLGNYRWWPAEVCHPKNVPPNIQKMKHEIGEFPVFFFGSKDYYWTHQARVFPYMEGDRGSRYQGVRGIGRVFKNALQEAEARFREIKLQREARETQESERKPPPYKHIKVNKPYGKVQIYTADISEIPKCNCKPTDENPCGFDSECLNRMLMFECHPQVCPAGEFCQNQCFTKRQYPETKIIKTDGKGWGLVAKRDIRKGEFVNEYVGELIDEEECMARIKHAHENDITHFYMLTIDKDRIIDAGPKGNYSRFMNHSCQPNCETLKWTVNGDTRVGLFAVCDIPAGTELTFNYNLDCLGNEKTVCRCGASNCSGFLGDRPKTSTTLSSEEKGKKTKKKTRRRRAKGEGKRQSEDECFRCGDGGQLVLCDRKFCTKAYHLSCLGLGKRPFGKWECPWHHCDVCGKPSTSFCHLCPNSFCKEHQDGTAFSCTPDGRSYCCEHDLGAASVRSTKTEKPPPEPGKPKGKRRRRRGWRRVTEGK

[3] = molecular target: T3, Alkaline phosphatase, tissue-nonspecific isozyme (Homo sapiens, UniProt P05186); experiment: TNAP enzyme inhibition by screening hits, dose response, selectivity assay for mouse IAP inhibitor project, biochemical, human TNAP, uHTS hits (AID 488906); type: functional
T3 sequence (P05186 whole entry): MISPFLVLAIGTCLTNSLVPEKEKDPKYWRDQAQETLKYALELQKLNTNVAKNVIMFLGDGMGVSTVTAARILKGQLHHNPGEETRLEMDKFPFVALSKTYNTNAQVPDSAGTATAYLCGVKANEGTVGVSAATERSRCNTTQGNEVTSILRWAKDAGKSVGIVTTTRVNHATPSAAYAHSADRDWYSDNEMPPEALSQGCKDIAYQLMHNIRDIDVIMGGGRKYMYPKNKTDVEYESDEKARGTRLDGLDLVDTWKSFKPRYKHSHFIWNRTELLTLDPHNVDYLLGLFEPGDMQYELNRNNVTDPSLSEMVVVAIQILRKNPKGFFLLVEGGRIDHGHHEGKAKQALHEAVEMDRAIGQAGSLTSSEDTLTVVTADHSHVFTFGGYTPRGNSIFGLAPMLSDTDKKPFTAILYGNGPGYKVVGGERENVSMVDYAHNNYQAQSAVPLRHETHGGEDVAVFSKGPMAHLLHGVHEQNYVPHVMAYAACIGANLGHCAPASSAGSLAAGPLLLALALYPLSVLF

[4] = molecular target: Intestinal-type alkaline phosphatase (Mus musculus, UniProt P24822); experiment: PubChem AID 488785; type: functional
[5] = molecular target: T4, E3 ubiquitin-protein ligase XIAP (Homo sapiens, UniProt P98170); experiment: SAR analysis of Antagonists of IAP-family anti-apoptotic proteins. [Related pubchem assays (depositor defined):AID1018, AID1449, AID1513, AID1514, AID1638]
[6] = molecular target: T4, E3 ubiquitin-protein ligase XIAP; experiment: SAR analysis of Antagonists of XIAP-Bir3 domain of IAP-family anti-apoptotic proteins. [Related pubchem assays (depositor defined):AID1018, AID1449, AID1513, AID1514, AID1638]
Coagulation factor XII = molecular target: T5, Coagulation factor XII (Homo sapiens, UniProt P00748); experiment: FXIIa inhibitor potency, concentration-response, biochemical (AID 716); type: functional
T5 sequence (P00748 whole entry): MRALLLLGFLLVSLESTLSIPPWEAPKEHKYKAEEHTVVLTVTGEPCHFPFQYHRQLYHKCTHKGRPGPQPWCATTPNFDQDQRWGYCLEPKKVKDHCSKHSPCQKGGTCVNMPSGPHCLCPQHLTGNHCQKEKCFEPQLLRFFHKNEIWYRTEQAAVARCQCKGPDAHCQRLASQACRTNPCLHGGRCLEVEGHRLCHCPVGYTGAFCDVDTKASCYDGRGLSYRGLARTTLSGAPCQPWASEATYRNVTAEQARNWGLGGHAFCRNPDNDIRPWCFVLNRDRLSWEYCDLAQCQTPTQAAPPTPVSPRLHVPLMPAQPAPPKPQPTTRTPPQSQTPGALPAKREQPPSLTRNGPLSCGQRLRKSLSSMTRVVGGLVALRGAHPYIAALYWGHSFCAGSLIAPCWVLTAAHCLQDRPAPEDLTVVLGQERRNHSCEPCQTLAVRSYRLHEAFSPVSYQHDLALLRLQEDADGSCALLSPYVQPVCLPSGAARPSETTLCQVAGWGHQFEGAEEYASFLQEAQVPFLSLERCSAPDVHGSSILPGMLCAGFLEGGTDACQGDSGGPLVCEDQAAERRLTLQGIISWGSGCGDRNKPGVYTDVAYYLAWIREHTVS

[7] = molecular target: T1, Intestinal-type alkaline phosphatase; experiment: human intestinal alkaline phosphatase activators, dose response, biochemical, luminescence, uHTS hits (AID 463120); type: functional
SUMO-activating enzyme [8] = molecular target: T6, SUMO-activating enzyme (Homo sapiens, UniProt Q9UBT2); experiment: inhibitors of in vitro SUMOylation cascade, primary screen, biochemical, HTRF, uHTS (AID 2006); type: protein-complex assay
Aminopeptidase N = molecular target: T7, Aminopeptidase N (Plasmodium falciparum FcB1/Columbia, UniProt O96935); experiment: P. falciparum M1AAP inhibitors, biochemical, fluorogenic H-Leu-NHMec substrate, 1536-well (AID 1445); parameters: species or system Plasmodium falciparum 3D7, 3D7
T7 sequence (O96935 whole entry): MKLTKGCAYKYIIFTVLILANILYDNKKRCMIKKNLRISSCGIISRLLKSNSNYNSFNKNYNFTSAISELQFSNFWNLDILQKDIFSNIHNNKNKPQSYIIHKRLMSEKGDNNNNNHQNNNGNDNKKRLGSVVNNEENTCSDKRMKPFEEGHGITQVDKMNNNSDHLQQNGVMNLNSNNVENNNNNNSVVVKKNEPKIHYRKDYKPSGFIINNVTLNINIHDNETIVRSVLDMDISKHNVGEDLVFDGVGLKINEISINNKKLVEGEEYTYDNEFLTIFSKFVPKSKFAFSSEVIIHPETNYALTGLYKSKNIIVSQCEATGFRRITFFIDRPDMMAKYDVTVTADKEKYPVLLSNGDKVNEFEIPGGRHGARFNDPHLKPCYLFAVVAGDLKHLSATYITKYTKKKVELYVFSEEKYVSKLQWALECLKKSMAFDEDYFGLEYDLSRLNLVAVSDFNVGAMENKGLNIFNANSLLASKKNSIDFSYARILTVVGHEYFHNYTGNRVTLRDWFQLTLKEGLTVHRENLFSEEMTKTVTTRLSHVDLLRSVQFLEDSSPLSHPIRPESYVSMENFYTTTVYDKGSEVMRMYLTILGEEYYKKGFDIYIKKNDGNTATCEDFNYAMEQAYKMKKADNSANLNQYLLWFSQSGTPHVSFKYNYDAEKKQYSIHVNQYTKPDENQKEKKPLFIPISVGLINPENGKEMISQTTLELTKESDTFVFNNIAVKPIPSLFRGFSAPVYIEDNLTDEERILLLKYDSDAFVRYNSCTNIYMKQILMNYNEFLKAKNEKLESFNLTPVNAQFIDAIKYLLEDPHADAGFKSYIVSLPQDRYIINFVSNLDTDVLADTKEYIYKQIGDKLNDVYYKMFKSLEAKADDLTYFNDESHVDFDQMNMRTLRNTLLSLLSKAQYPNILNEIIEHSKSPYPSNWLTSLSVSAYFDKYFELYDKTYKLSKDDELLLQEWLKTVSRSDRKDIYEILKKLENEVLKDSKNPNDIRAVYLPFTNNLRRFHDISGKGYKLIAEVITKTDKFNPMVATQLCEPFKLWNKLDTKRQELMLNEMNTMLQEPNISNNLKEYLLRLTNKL

Genome polyprotein = Genome polyprotein (dengue virus type 2, UniProt P29990); experiment: Dengue-2 NS5 methyltransferase inhibitors, primary screen, biochemical, confirmation dose response (AID 588689); type: functional
Procathepsin L = Procathepsin L (Homo sapiens, UniProt P07711); experiment: cathepsin L inhibitors, dose response, counter-screen for M1/M17 aminopeptidase inhibitor project, biochemical, QFRET, 1536-well (AID 2214)
Aspartyl aminopeptidase = molecular target: T8, Aspartyl aminopeptidase (Plasmodium falciparum 3D7, UniProt Q8I2J3); experiment: Counterscreen for inhibitors of M1 and M17 aminopeptidases: QFRET-based biochemical high throughput dose response assay for inhibitors of the Plasmodium falciparum M18 Aspartyl Aminopeptidase (PFM18AAP). [Related PubChem assays: 1619 (Screening assay (M17LAP inhibitors).), 1445 (Screening assay (M1AAP inhibitors).)]
T8 sequence (Q8I2J3 whole entry): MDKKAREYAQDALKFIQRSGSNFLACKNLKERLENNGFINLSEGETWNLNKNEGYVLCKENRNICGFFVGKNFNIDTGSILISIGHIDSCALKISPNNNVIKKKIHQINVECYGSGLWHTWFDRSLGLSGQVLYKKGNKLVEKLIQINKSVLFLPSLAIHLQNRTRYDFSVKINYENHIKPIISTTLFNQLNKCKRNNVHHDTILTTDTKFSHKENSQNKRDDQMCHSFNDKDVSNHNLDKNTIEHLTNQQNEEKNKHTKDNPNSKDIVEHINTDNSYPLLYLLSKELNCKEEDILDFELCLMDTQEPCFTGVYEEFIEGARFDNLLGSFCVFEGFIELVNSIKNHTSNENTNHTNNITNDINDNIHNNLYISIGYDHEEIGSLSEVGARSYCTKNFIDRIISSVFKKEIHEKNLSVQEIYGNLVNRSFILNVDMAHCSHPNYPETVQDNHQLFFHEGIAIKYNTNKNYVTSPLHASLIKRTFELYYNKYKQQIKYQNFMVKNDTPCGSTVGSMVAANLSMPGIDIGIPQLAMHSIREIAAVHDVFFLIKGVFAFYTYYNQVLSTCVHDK

SUMO-activating enzyme [9] = molecular target: T6, SUMO-activating enzyme; experiment: SUMOylation inhibitor hit validation, confirmation, SUMOylation inhibitor project, biochemical, AlphaScreen (AID 2018); type: functional
[10] = insulin promoter down-regulators in MIN6 cells, imaging, high-content screening, mouse beta cells (AID 1628); type: functional
[11] = cytotoxicity in MIN6 insulinoma cells, dose response, cytotoxicity control, cell-based, mouse insulinoma (AID 2122); type: functional;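 note: confirmatory high-throughput counterscreen run to flag cytotoxic compounds; mouse MIN-6 beta cells carrying an insulin promoter eGFP reporter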
[12] = molecular target: Alkaline phosphatase, placental type (Homo sapiens, UniProt P05187); experiment: PLAP enzyme inhibitors, confirmation, biochemical, luminescence (AID 1512); type: functional
[13] = molecular target: T3, Alkaline phosphatase, tissue-nonspecific isozyme; experiment: human TNAP enzyme inhibitors, SAR follow-up, biochemical, luminescent, dose response (AID 1056)

T4 sequence (P98170 whole entry, the tested form may be a part): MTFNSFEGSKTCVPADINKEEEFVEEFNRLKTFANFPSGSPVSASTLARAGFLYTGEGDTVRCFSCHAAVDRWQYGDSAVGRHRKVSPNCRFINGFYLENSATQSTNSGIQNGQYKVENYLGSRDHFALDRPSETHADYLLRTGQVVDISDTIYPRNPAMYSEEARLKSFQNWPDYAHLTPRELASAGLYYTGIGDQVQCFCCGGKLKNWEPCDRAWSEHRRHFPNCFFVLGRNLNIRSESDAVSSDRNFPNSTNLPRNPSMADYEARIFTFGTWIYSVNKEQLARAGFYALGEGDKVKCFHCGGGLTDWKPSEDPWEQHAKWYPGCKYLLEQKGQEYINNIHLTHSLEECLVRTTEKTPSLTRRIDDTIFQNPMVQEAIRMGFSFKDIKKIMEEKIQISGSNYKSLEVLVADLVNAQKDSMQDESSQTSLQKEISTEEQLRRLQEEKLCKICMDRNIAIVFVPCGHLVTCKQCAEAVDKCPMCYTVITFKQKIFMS
T1 sequence (P09923 whole entry): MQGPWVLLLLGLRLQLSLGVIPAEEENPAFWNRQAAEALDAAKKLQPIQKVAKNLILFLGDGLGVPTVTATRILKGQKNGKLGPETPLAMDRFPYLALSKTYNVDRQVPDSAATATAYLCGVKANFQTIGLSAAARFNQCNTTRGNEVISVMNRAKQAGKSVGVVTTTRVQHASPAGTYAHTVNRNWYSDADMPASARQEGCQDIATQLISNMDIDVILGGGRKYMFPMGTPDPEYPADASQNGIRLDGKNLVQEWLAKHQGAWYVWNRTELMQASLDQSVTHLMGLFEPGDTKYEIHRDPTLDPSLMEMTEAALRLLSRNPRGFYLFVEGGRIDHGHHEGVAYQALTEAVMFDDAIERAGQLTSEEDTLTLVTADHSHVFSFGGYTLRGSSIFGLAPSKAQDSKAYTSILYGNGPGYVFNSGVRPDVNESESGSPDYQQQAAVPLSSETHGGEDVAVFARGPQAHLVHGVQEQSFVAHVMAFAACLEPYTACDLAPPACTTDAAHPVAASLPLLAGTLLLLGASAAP
T6 sequence (Q9UBE0 whole entry): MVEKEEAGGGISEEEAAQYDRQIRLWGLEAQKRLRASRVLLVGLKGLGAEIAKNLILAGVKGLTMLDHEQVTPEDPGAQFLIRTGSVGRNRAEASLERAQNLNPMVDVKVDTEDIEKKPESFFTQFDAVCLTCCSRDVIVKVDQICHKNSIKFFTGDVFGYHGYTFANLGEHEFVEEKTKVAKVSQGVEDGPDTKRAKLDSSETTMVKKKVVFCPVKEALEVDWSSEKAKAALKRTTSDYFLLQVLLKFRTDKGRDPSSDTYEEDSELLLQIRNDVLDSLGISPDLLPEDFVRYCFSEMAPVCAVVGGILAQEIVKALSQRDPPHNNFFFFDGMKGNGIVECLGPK
T6 sequence (Q9UBT2 whole entry): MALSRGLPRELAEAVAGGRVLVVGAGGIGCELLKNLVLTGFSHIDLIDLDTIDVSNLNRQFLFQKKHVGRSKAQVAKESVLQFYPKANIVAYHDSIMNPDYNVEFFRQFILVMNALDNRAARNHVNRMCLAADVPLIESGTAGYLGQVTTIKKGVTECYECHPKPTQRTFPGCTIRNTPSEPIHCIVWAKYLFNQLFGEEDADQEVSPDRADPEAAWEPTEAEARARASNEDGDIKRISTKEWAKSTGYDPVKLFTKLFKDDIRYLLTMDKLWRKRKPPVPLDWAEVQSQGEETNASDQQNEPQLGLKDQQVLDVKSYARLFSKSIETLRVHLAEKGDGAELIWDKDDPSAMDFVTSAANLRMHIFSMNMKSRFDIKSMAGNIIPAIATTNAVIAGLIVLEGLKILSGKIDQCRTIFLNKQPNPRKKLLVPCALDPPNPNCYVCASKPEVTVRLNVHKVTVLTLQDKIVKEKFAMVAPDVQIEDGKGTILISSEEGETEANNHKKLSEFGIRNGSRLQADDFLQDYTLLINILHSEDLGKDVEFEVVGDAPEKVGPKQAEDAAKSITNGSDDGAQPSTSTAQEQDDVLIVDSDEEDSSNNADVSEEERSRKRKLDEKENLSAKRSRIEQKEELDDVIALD
Chain of Procathepsin L (P07711 whole entry): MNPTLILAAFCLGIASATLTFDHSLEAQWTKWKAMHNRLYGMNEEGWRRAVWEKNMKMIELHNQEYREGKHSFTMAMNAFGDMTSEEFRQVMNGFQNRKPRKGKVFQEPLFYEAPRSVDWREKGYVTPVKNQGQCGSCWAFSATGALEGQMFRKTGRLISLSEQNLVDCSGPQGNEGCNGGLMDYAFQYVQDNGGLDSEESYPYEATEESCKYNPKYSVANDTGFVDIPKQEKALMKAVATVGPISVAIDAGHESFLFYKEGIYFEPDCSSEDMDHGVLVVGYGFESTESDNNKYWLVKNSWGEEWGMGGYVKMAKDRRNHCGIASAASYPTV
Chain of Genome polyprotein (P29990 2492-3391 limits assumed): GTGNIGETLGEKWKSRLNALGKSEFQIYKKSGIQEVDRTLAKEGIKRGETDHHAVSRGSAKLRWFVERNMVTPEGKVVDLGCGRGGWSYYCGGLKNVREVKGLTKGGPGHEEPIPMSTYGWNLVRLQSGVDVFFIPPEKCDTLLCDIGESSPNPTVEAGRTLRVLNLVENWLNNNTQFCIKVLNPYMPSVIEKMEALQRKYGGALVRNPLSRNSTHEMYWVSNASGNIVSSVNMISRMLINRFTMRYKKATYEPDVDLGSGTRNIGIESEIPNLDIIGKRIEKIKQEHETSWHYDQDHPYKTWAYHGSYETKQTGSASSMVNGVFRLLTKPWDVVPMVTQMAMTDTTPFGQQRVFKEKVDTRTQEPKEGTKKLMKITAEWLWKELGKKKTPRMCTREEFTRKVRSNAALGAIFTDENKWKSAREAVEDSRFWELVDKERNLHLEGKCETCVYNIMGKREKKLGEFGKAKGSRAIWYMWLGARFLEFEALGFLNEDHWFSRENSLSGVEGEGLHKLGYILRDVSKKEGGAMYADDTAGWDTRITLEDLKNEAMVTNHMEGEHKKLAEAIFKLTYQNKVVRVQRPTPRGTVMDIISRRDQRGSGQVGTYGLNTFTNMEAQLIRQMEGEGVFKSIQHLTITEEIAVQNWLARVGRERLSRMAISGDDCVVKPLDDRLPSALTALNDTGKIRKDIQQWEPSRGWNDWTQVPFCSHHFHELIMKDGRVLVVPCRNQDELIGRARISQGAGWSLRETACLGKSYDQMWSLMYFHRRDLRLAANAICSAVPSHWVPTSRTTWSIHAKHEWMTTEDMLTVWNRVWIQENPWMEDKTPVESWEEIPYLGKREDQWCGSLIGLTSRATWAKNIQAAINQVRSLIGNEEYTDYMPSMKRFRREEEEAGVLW
Chain of Intestinal-type alkaline phosphatase (Mus musculus, UniProt P24822) (P24822 whole entry): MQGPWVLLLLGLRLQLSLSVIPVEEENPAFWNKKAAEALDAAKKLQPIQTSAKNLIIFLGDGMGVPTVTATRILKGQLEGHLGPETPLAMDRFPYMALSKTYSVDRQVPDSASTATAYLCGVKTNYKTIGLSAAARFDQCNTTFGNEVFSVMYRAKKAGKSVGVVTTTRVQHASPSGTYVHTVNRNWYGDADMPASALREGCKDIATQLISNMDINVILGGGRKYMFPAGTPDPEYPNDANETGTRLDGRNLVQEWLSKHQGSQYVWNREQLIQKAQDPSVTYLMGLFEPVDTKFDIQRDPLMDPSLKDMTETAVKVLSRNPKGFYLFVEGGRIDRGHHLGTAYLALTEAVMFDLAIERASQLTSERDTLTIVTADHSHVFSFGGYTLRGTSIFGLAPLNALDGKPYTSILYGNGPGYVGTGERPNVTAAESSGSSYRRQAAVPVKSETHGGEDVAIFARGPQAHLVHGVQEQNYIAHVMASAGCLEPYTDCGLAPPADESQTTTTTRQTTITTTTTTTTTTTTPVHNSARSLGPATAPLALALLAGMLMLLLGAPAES
Chain of Alkaline phosphatase, placental type (P05187 whole entry): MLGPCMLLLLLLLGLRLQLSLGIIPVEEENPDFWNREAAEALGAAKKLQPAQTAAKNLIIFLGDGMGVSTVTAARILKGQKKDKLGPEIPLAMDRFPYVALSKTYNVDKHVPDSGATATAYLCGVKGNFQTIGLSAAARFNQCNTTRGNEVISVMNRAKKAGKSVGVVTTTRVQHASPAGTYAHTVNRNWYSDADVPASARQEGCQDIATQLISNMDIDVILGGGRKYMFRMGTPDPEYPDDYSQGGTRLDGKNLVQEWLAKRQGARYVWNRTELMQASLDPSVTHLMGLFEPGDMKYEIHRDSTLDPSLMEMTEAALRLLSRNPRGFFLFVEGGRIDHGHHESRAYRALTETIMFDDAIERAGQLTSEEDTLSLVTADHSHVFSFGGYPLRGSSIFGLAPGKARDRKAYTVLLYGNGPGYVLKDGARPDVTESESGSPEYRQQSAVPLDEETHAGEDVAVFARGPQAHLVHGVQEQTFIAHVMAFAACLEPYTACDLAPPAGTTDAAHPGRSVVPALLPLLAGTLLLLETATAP

O=C(CSc1nc2nn(-c3ccccc3)c(=O)c-2c2n1CCCCC2)c1ccc(O)c(O)c1
IC50 [1]: > 100 µM (inactive) | AC50 [2]: 2.62 µM (active) | IC50 [3]: > 100 µM (inactive) | IC50 [4]: 9.04 µM (active)

CC(C)[C@H](NC(=O)[C@H](C)N)C(=O)N[C@@H](C)C(=O)Nc1cccc2ccccc12
IC50 [5]: 1.8 µM (active) | IC50 [6]: 103 µM (active)

COc1ccc2cc(CN(CCO)C(=O)c3ccccc3F)c(=O)[nH]c2c1
IC50 (Coagulation factor XII): > 50 µM (inactive)

CCCSc1nnc(-c2c[nH]c3ccccc23)n1C
IC50 (Coagulation factor XII): > 50 µM (inactive)

CCOc1ccc(CC(=O)NNC(=S)NCCc2ccccc2)cc1
EC50 [7]: 13.1 µM (active)

CC(/C=C1\SC(=S)N(C(C(=O)O)c2ccccc2)C1=O)=C\c1ccccc1 (stereo unspecified)
IC50 (SUMO-activating enzyme [8]): 26.8 µM (active) | IC50 (Aminopeptidase N): 12.4 µM (active) | IC50 (Genome polyprotein): 38.5 µM (active) | IC50 (Procathepsin L): > 59.6 µM (not active) | IC50 (Aspartyl aminopeptidase): > 73.5 µM (not active) | IC50 (SUMO-activating enzyme [9]): 10.9 µM (active)

c1ccc(-c2ccccc2OCCOCCN2CCc3ccccc3C2)cc1
IC50 [10]: 2.55 µM (active) | IC50 [11]: 3.85 µM (active)

CN[C@@H](C)C(=O)N[C@H](C(=O)N[C@@H](C)C(=O)Nc1cccc2ncccc12)C(C)C
IC50 [5]: > 100 µM (inactive) | IC50 [6]: > 100 µM (inactive)

O=C(CN1CCCc2ccccc21)c1ccc(O)c(O)c1
IC50 [12]: 4.87 µM (active) | IC50 [13]: 39.3 µM (active)

Reference: ChEMBL document CHEMBL1201862, “PubChem BioAssay data set” (2004)
